Results taken from patent publication EP1112066B1, “USE OF METHOXYMORPHOLINO DOXORUBICIN FOR THE TREATMENT OF A LIVER TUMOR” (Pharmacia Italia S.p.A., priority 1998, dated 2000).
Counter-ions that a name gives are not always drawn. Like-named read-outs stand apart in the source and are kept apart here.

Legend:
[1] = system: metastatic colorectal cancer; settings: cited from earlier work
liver metastases [2] = settings: hepatic arterial infusion; no substantial effect on survival; cited from earlier work
liver metastases [3] = test: Phase II study by i.v. route in breast cancer patients with liver metastases; format: in vivo, human; settings: 1500 mcg/m^2 i.v., six patients treated
[4] = Lethal dose (LD10) in rats; format: in vivo
From the text: (§1) The starting dose was 100 mcg/m^2,corresponding to one third of the LD10 in rats.

HCC = test: Phase I dose-finding study of MMDX via the hepatic artery (IHA): antitumor activity in liver; format: in vivo, human
Procedure: (§2) A single arm, multicentre, dose-finding Phase I study of MMDX (PNU 152243) administered as a brief infusion of 30 minutes every 4 weeks via the hepatic artery (IHA) to adult patients either with hepatic metastatic colorectal cancer who have progressed after receiving intravenous chemotherapy or intrahepatic 5-fluoruracil chemotherapy, or with previously untreated primary hepatocellular carcinoma or cholangiocarcinoma involving the liver was carried out. Their disease was confined to the liver, at the time of trial entry.
Antitumor activity was documented in this study.
(§3) On a total of 23 registered patients, 18 received intra hepatic artery (IHA) administration of MMDX.
(§4) Doses tested ranged from 100 mcg/m^2 to 800 mcg/m^2.
(§5) Results are available on 13 patients: 3 patients (6 cycles) at 100 mcg/m^2, 3 patients (12 cycles) at 200mcg/m^2, 3 patients (4 cycles) at 400 mcg/m^2, 3 patients (10 cycles) at 600 mcg/m^2 and 1 patient (3 cycles) at 800 mcg/m^2.

[5] = system: liver metastases from M5076 murine fibrosarcoma; test: Liver metastases from M5076 murine tumor; format: in vivo
From the text: (§6) The high lipophilicity of the molecule, which confers to the compound the ability to reach high intracellular concentrations and is most likely one of the reasons of its efficacy on resistant models, makes it effective also after oral administration. The oral antitumor efficacy of MMDX has been examined in a panel of different tumor types with various schedules of administration. […] In these models, the effective oral doses of MMDX are 1.3-2 fold higher than the effective i.v. doses. […] This might be a reflection of a different behaviour of the drug, due to first pass effect to the liver.
(§7) Strong evidence of antitumor efficacy in liver is also supported by preclinical data. […] This specific effect on liver metastases is probably due to metabolite(s) produced by liver enzymes. This hypothesis is reinforced by several results showing MMDX being activated in vitro by liver microsomes to a highly cytotoxic product. This metabolic conversion is believed to occur also in humans.

[6] = system: murine leukemias, solid murine and human tumor models; test: In vivo antitumor potency, optimal i.v. dose
[7] = system: panel of different tumor types; test: Oral antitumor efficacy in a panel of tumor types; format: in vivo
From the text: as §6

[8] = system: tumor cells resistant to anthracyclines and presenting the mdr phenotype; test: Activity in vitro and in vivo on resistant tumor cells
From the text: MMDX is active in vitro and in vivo on tumor cells resistant to anthracyclines and presenting the mdr phenotype, this last mechanism being recognized to occur also in man.
A well known pathway of the metabolic transformation of the antitumor anthracyclines in mammals is the side-chain carbonyl group reduction, giving the corresponding 13-dihydro derivative.

[9] = Phase I dose-finding study of MMDX via the hepatic artery (IHA): toxicity; format: in vivo, human; settings: for thrombocytopenia (grade): considered tumor related (HCC patient); for anemia (max. grade): one patient
Procedure: as §2
The primary goal of this study was the determination of Maximal Tolerated Dose (MTD) and Dose-Limiting Toxicities (DLTs)of MMDX when administered via the hepatic artery.
as §1, §3, §4, §5

[10] = Cytotoxic activity in vitro in the presence of liver microsomes; format: cell-based; settings: mouse, rat and human liver microsomes
From the text: as §7

liver metastases [11] = test: Phase I and phase Ib studies by intravenous route: response in liver and toxicity; format: in vivo, human; settings: i.v.
From the text: The expectation that MMDX is effective in liver neoplasms comes from the findings of phase I and phase Ib studies conducted by intravenous route, where, out of 30 patients evaluable for response in liver, 5 experienced regressions of liver metastases. […] Tumor shrinkage occurred at doses of 1250 and 1500 mcg/m^2 i.v..

[12] = systemic, metastatic colorectal cancer
[13] = after failure of 5-FU leucovorin
[14] = 400 mcg/m^2 IHA, one patient (1 cycle)
[15] = 600 mcg/m^2 IHA, 1 patient (2 cycles)
[16] = 800 mcg/m^2 IHA, 1 patient (1 cycle)

## 5-fluoruracil (5-FU) plus folinic acid
[1]; [12]
  overall survival: around 12 months
  response rate: 20%

## O=c1[nH]cc(F)c(=O)[nH]1 [5-FU, 5-fluoruracil]
Liver metastases [2]
  response rate: up to 50%

## O=c1[nH]c(=O)n([C@H]2C[C@H](O)[C@@H](CO)O2)cc1F [FUDR, 5-fluorodeoxyuridine]
Liver metastases [2]
  response rate: up to 50%

## CCc1c2c(nc3ccc(OC(=O)N4CCC(N5CCCCC5)CC4)cc13)-c1cc3c(c(=O)n1C2)COC(=O)[C@]3(O)CC [Irinotecan hydrochloride trihydrate]
[1]; [13]
  median survival time: approximately 9 months
  response rate: 15%

## COc1cccc2c1C(=O)c1c(O)c3c(c(O)c1C2=O)C[C@@](O)(C(=O)CO)C[C@@H]3O[C@H]1C[C@H](N2CCO[C@H](OC)C2)[C@H](O)[C@H](C)O1 [MMDX, Methoxymorpholino doxorubicin]
Liver metastases [3]
  number of complete responses in liver lesions: 1
  number of minor responses in liver lesions: 1
Liver metastases [3]; one not confirmed four weeks apart
  number of partial responses in liver lesions: 3
[4]
  one third of the LD10 in rats: 100 mcg/m^2
HCC; 200 mcg/m^2 IHA, first HCC patient, after 2 IHA cycles
  reduction of measurable liver disease (NMR, overall 17.75 cm^2 at entry): more than 86%
HCC; 200 mcg/m^2 IHA, first HCC patient, after 2 IHA cycles, confirmed after the fourth
  tumor response: Partial Response (PR)
HCC; 200 mcg/m^2 IHA, first HCC patient, after the sixth IHA cycle
  tumor response: Complete Response (CR)
HCC; 200 mcg/m^2 IHA, patients with HCC
  number of objective tumor responses in liver: Two
HCC; 200 mcg/m^2 IHA, second HCC patient, after the third IHA cycle
  decrease of the bigger lesion in diameter (6 cm at baseline, Ctscan): 50%
HCC; 800 mcg/m^2 IHA, third HCC patient, after 3 cycles
  tumor response: minor response
[5]; administered orally, same M5076 model
  efficacy on the liver metastases versus the solid primary: more effective on the liver metastases than on the solid primary
[5]; injectable formulation
  efficacy relative to the oral formulation: less effective
[5]; oral formulation, daily for 5 days
  survival time (best result): doubling of survival time
[6]; after i.p., i.v. or oral administration, murine leukemias, solid murine and human tumor models
  antitumor activity: good antitumor activity
[6]; in vivo, i.v.
  optimal i.v. dose, fold less than that of doxorubicin: at least 80 fold
[7]; all animal models examined, various schedules
  oral antitumor activity compared to intravenous (i.v.) administration: comparable
[7]; animal models
  effective oral doses, fold higher than the effective i.v. doses: 1.3-2 fold
Lipophilicity
  lipophilicity: high
[8]; in vitro and in vivo
  activity on tumor cells resistant to anthracyclines (mdr phenotype): active
[8]; tumor cells resistant to L-PAM or cDDP, or to Topoisomerase II inhibitors (at-mdr)
  cross-resistance: No cross-resistance
[9]; 100 mcg/m^2 IHA, 1 patient (1 cycle)
  leucopenia (grade): 1
[9]; 100 mcg/m^2 IHA, 2 patients (3 cycles)
  fatigue (grade): 1-2
[9]; 100 mcg/m^2 IHA, one out of three patients (1 cycle)
  vomiting: mild
[9]; 200 mcg/m^2 IHA, 1 patient (1 cycle)
  leucopenia (grade): 1
[9]; 200 mcg/m^2 IHA, 1 patient (2 cycles)
  fatigue (grade): 2
[9]; 200 mcg/m^2 IHA, 1 patient (3 cycles)
  thrombocytopenia (grade): 1-2
[9]; 200 mcg/m^2 IHA, 2/3 patients
  increase in transaminases (grade), attributable to the study drug: 1-2
[9]; 200 mcg/m^2 IHA, 2 patients (2 cycles)
  nausea (grade): 2
[9]; 200 mcg/m^2 IHA, 2 patients (3 cycles)
  vomiting (grade): 1-2
[9]; 200 mcg/m^2 IHA
  anemia (max. grade): ≤ 1
[9]; 200 mcg/m^2 IHA, two patients (one diabetic, persisting from baseline; one post prandial)
  hyperglycemia (grade): 3
[9]; 400 mcg/m^2 IHA, 1 patient (1 cycle)
  leucopenia (grade): 1
[9]; 400 mcg/m^2 IHA, 2/3 patients
  increase in transaminases (grade), attributable to the study drug: 1-2
[9]; 400 mcg/m^2 IHA, 2 patients (2 cycles)
  nausea (grade): 2-3
[9]; [14]
  alopecia: mild
  local pain at porth-a-cath site: Mild
  vomiting (grade): 2
[9]; 400 mcg/m^2 IHA, third patient, probably due to the IHA technology applied
  transaminase elevation (grade): 2-3
[9]; 600 mcg/m^2 IHA, 1 patient (1 cycle)
  thrombocytopenia (grade): 1-2
[9]; [15]
  alopecia: mild
  fatigue (grade): 2
[9]; 600 mcg/m^2 IHA, 2 out of 3 patients
  increase in transaminases (grade), attributable to the study drug: 1-2
[9]; 600 mcg/m^2 IHA, 2 patients (2 cycles)
  nausea (grade): 1-2
[9]; 600 mcg/m^2 IHA
  anemia (max. grade): ≤ 1
[9]; [16]
  fatigue (grade): 1
  fever (grade): 1
  mucositis (grade): 1
  nausea (grade): 1
[9]; 800 mcg/m^2 IHA
  anemia (max. grade): ≤ 1
[9]; 800 mcg/m^2 IHA, the one patient treated
  transaminase elevation (grade): 3
[9]; IHA
  time of maximum transaminases elevation: during the first week after treatment
[9]; IHA, 100-800 mcg/m^2
  most frequently observed adverse events attributable to the study drug: nausea, vomiting and fatigue
  other grade 3-4 non-hematological events: No other grade 3-4 events
[9]; IHA, all doses reported
  AGC: always normal
[9]; IHA, starting from 100 mcg/m^2, not considered due to the study drug
  bilirubinemia increases (grade): 2
[10]
  cytotoxic activity in the presence of liver microsomes: increased
Liver metastases [11]; phase I and Ib
  main toxicities: nausea and vomiting (requiring intravenous antiemetic treatment), myelosuppression and transient elevations in transaminases
Liver metastases [11]; additional patient with colorectal cancer and multiple liver metastases at entry, after the first cycle
  liver finding at autopsy: no evidence of liver metastases
Liver metastases [11]; out of 30 patients evaluable for response in liver, shrinkage at 1250 and 1500 mcg/m^2
  number of patients with regressions of liver metastases: 5
Liver metastases [11]; two patients with colorectal cancer, after 3 cycles
  regression of liver lesions: < 50%
Liver metastases [11]; two patients with renal cancer, after 3 cycles
  regression in liver lesions: greater than 50%

## COc1cccc2c1C(=O)c1c(O)c3c(c(O)c1C2=O)CC(O)(C(O)CO)CC3OC1CC(N2CCOC(OC)C2)C(O)C(C)O1 (stereo not drawn) [reduced derivative of MMDX]
[8]; doxorubicin-resistant models, in vitro and in vivo
  active doses, fold higher as compared to the parent drug: 10 fold
[8]; in vitro and in vivo
  activity against doxorubicin-resistant models: maintains activity
